The target in one experiment is T1, h FPR2 (Homo sapiens, UniProt P25090).
T1 construct: expressed in transfected cells
T1 sequence (P25090 1-351): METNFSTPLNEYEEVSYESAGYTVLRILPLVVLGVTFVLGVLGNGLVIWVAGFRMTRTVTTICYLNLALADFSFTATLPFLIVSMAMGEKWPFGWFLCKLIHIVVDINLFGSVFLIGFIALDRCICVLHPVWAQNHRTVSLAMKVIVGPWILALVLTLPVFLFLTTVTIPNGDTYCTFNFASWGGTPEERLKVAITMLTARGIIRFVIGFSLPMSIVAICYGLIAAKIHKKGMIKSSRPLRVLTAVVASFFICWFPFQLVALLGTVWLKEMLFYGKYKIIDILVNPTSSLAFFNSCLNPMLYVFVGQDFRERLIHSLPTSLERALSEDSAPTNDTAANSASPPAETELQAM
Briefly: Agonistic activity in hFPR2-Aq-CHO cells (FLIPR Calcium 5 fluorescence assay). In kind it is cell-based. Conditions: 11 point half log dilution, final assay concentration from 10µM. The method in brief:
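EC50 reflects the compound-evoked rise in Calcium 5 fluorescence over basal, recorded for 5 min on FLIPR and compared with no-compound wells. Dye-loaded hFPR2-Aq-CHO cells received half-log dilutions from 10 µM to 100 pM final in pH 7.4 HBSS buffer.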
On to `Cc1cc(NC(=O)N[C@@H]2CCN(c3ccnc(C(F)(F)F)n3)C[C@H]2c2ccc(Cl)cn2)sn1` (relative stereo) [Ex-28, trans-1-[5-chloro-1'-(2-trifluoromethyl-pyrimidin-4-yl)-1',2',3',4',5',6'-hexahydro-[2,3']bipyridinyl-4'-yl]-3-(3-methyl-isothiazol-5-yl)-urea], for which the EC50 (commonly the concentration needed to bring the measured effect to its halfway point) was 17 nM.
Still for that read-out and setting: the figure for `Cc1ncc(CN2CC[C@@H](NC(=O)Nc3ccc(Cl)cc3)[C@H](c3ccc(Cl)s3)C2)cn1` (relative stereo) [Ex-76, trans-1-(4-chlorophenyl)-3-[3-(5-chlorothiophen-2-yl)-1-[(2-methylpyrimidin-5-yl)methyl]piperidin-4-yl]urea] is 2 nM; for `CNCCC(=O)N1CC[C@@H](NC(=O)Nc2cc(C)ns2)[C@H](c2ccc(OC)cn2)C1` (relative stereo) [Ex-135, trans-1-[3-(5-Methoxy-pyridin-2-yl)-1-(3-methylamino-propanoyl)-piperidin-4-yl]-3-(3-methyl-isothiazol-5-yl)-urea] it is 17 nM; for `COc1ccc([C@@H]2CN(CC3CC3)CC[C@H]2NC(=O)Nc2ccc(Cl)cc2)nc1` (relative stereo) [Ex-127, trans-1-(4-Chlorophenyl)-3-[1-(cyclopropyl-methyl)-3-(5-methoxy-pyridin-2-yl)-piperidin-4-yl]-urea] it is 0.16 nM.
Same read-out and setting: the figure for `COc1ccc([C@H]2CN(CCO)CC[C@@H]2NC(=O)Nc2ccc(Cl)cc2)nc1` [Ex-206] is 2 nM; for `COc1cnc([C@@H]2CN(CCO)CC[C@H]2NC(=O)Nc2ccc(Cl)cc2)c(F)c1` (relative stereo) [Ex-199, trans-1-(4-chloro-phenyl)-3-[3-fluoro-1'-(2-hydroxy-ethyl)-5-methoxy-1',2',3',4',5',6'-hexahydro-[2,3']bipyridinyl-4'-yl]-urea] it is 0.5 nM.
On the same count and under the same terms, the figure for `COc1ccc([C@@H]2CN(CC3CC(O)C3)CC[C@H]2NC(=O)Nc2ccc(Cl)cc2)nc1` (single isomer, unassigned) [Ex-205, trans-1-(4-chloro-phenyl)-3-[1'-(3-hydroxy-cyclobutylmethyl)-5-methoxy-1',2',3',4',5',6'-hexahydro-[2,3']bipyridinyl-4'-yl]-urea] is 4 nM; for `CNCC(=O)N1CC[C@@H](NC(=O)Nc2ccc(Cl)cc2)[C@H](c2ccc(OC)cn2)C1` (relative stereo) [Ex-96, trans-1-(4-chloro-phenyl)-3-[5-methoxy-1'-(2-methylamino-acetyl)-1',2',3',4',5',6'-hexahydro-[2,3']bipyridinyl-4'-yl]-urea] it is 4 nM.
In the case of `COc1ccc([C@@H]2CN(c3ccc(F)cc3)CC[C@H]2NC(=O)Nc2ccc(Cl)cc2)nc1` (relative stereo) [Ex-18, trans-1-(4-chloro-phenyl)-3-[1'-(4-fluoro-phenyl)-5-methoxy-1',2',3',4',5',6'-hexahydro-[2,3']bipyridinyl-4'-yl]-urea], the EC50 came to 0.8 nM.
As to `Cc1ccc(N2CC[C@@H](NC(=O)Nc3cc(C)ns3)[C@H](c3ccc(Cl)cn3)C2)nn1` (relative stereo) [Ex-33, trans-1-[5-chloro-1'-(6-methyl-pyridazin-3-yl)-1',2',3',4',5',6'-hexahydro-[2,3']bipyridinyl-4'-yl]-3-(3-methyl-isothiazol-5-yl)-urea], the EC50 amounted to 11 nM.
The same measure, in the same setting: as for `COc1ccc([C@@H]2CN(CCN(C)C)CC[C@H]2NC(=O)Nc2ccc(Cl)cc2)nc1` (relative stereo) [Ex-136, trans-1-(4-Chlorophenyl)-3-[1-[2-(dimethylamino)ethyl]-3-(5-methoxy-pyridin-2-yl)-piperidin-4-yl]-urea], the figure is 1.4 nM; as for `COc1ccc([C@@H]2CN(Cc3ccn(S(C)(=O)=O)n3)CC[C@H]2NC(=O)Nc2ccc(Cl)cc2)nc1` (single isomer, unassigned) [Ex-42, trans-1-(4-chlorophenyl)-3-[1-[(1-methanesulfonyl-1H-pyrazol-3-yl)methyl]-3-(5-methoxypyridin-2-yl)piperidin-4-yl]urea], 1 nM; as for `COC1CCC(CN2CC[C@@H](NC(=O)Nc3ccc(Cl)cc3)[C@H](c3ccc(Cl)s3)C2)CC1` (relative stereo) [Ex-116, trans-1-(4-chloro-phenyl)-3-[3-(5-chloro-thiophen-2-yl)-1-(4-methoxy-cyclohexylmethyl)-piperidin-4-yl]-urea], 9 nM.
Same read-out and setting: as for `O=C(Nc1ccc(Cl)cc1)N[C@@H]1CCN(c2ccc(F)cc2)C[C@H]1c1ccc(Cl)cn1` (relative stereo) [Ex-12, trans-1-[5-chloro-1'-(4-fluoro-phenyl)-1',2',3',4',5',6'-hexahydro-[2,3']bipyridinyl-4'-yl]-3-(4-chlorophenyl)-urea], the figure is 9 nM.
The same measure, in the same setting: the figure for `COc1ccc([C@@H]2CN(C(=O)C3CCNCC3)CC[C@H]2NC(=O)Nc2ccc(Cl)cc2)nc1` (relative stereo) [Ex-88, trans-1-(4-chloro-phenyl)-3-[5-methoxy-1'-(piperidine-4-carbonyl)-1',2',3',4',5',6'-hexahydro-[2,3']bipyridinyl-4'-yl]-urea] is 1.2 nM; for `COc1ccc([C@@H]2CN(Cc3cnn(S(C)(=O)=O)c3)CC[C@H]2NC(=O)Nc2ccc(C#N)cc2)nc1` (relative stereo) [Ex-140, trans-1-(4-Cyano-phenyl)-3-[3-(5-methoxy-pyridin-2-yl)-1-[(1-methylsulfonyl-1H-pyrazol-4-yl)-methyl]-piperidin-4-yl]-urea] it is 0.9 nM.
As for `O=C(Nc1ccc(Cl)cc1)N[C@@H]1CCN(c2ccncn2)C[C@H]1c1ccc(Cl)cn1` (relative stereo) [Ex-9, trans-1-(4-chloro-phenyl)-3-(5-chloro-1'-pyrimidin-4-yl-1',2',3',4',5',6'-hexahydro-[2,3']bipyridinyl-4'-yl)-urea], the concentration giving a half-maximal response (EC50) was found to be 2 nM.
Still for that read-out and setting: the figure for `Cc1cc(N2CC[C@@H](NC(=O)Nc3cc(C)ns3)[C@H](c3ccc(Cl)cn3)C2)ncn1` (relative stereo) [Ex-31, trans-1-[5-chloro-1'-(6-methyl-pyrimidin-4-yl)-1',2',3',4',5',6'-hexahydro-[2,3']bipyridinyl-4'-yl]-3-(3-methyl-isothiazol-5-yl)-urea] is 5 nM; for `Cc1cc(NC(=O)N[C@@H]2CCN(c3cccnn3)C[C@H]2c2ccc(Cl)cn2)sn1` (relative stereo) [Ex-32, trans-1-(5-chloro-1'-pyridazin-3-yl-1',2',3',4',5',6'-hexahydro-[2,3']bipyridinyl-4'-yl)-3-(3-methyl-isothiazol-5-yl)-urea] it is 3 nM.
Still for that read-out and setting: the figure for `COc1ccc([C@@H]2CN(C(=O)C3CCC(O)CC3)CC[C@H]2NC(=O)Nc2ccc(Cl)cc2)nc1` (relative stereo) [Ex-90, trans-1-(4-chloro-phenyl)-3-[1'-(4-hydroxy-cyclohexanecarbonyl)-5-methoxy-1',2',3',4',5',6'-hexahydro-[2,3']bipyridinyl-4'-yl]-urea] is 32 nM.
The same measure, in the same setting: the figure for `COc1ccc([C@@H]2CN(CCCN(C)C)CC[C@H]2NC(=O)Nc2ccc(Cl)cc2)nc1` (relative stereo) [Ex-111, trans-1-(4-chloro-phenyl)-3-[1'-(3-dimethylaminopropyl)-5-methoxy-1',2',3',4',5',6'-hexahydro-[2,3']bipyridinyl-4'-yl]-urea] is 0.2 nM; for `COc1ccc([C@@H]2CN(C(=O)c3ccc(C)nc3)CC[C@H]2NC(=O)Nc2ccc(C#N)cc2)nc1` (relative stereo) [Ex-128, trans-1-(4-Cyano-phenyl)-3-[3-(5-methoxy-pyridin-2-yl)-1-(6-methyl-pyridine-3-carbonyl)-piperidin-4-yl]-urea] it is 5 nM; for `COc1ccc([C@H]2CN(CC(F)F)CC[C@@H]2NC(=O)Nc2cc(C)ns2)nc1` [Ex-214] it is 0.8 nM.
Turning to `COc1ccc([C@@H]2CN(CC3CCN(C)CC3)CC[C@H]2NC(=O)Nc2ccc(Cl)cc2)nc1` (relative stereo) [Ex-147, trans-1-(4-Chlorophenyl)-3-[3-(5-methoxy-pyridin-2-yl)-1-[(1-methyl-piperidin-4-yl)-methyl]-piperidin-4-yl]-urea], the concentration giving a half-maximal response (EC50) was found to be 0.4 nM.

The experiment is the same for the next values; noted with them: agonistic response at 0.1µM.
On to `COc1ccc([C@@H]2CNCC[C@H]2NC(=O)Nc2ccc(Cl)cc2)nc1` (relative stereo) [Ex-169, trans-1-(4-Chlorophenyl)-3-[3-(5-methoxy-pyridin-2-yl)-piperidin-4-yl]-urea], for which the activation at 0.1 µM was 23%.
On the same count and under the same terms, as for `COc1ccc([C@@H]2CN(c3ccncn3)C(=O)C[C@H]2NC(=O)Nc2ccc(Cl)cc2)nc1` (relative stereo) [Ex-25, trans-1-(4-chlorophenyl)-3-[5-(5-methoxypyridin-2-yl)-2-oxo-1-(pyrimidin-4-yl)piperidin-4-yl]urea], the figure is 17%.
For the compound `COc1ccc([C@@H]2CN(CC3CCOCC3)CC[C@H]2NC(=O)Nc2ccc(Cl)cc2)nc1` (relative stereo) [Ex-50, trans-1-(4-chlorophenyl)-3-[(5-methoxypyridin-2-yl)-1-(oxan-4-ylmethyl)piperidin-4-yl]urea], the “h FPR2 FLIPR % @0.1µM” value is reported as 40%@0.1µM.
Regarding `COc1ccc([C@@H]2CN(C3COC3)CC[C@H]2NC(=O)Nc2ccccc2)nc1` (relative stereo) [Ex-162, trans-1-[3-(5-Methoxy-pyridin-2-yl)-1-(oxetan-3-yl)-piperidin-4-yl]-3-phenyl-urea], the activation at 0.1 µM worked out at 34%.

For the origin of these results see patent EP3789378A1, “PIPERIDINES OR PIPERIDONES SUBSTITUTED WITH UREA AND HETEROARYL” (Grünenthal GmbH, priority 2019, dated 2021).
